Assay results: patent publication US20050208511A1, “DMBT1 as a clinical marker and uses thereof” (priority 2003, published 2005)

Test system: endometrium
Assay: average endometrial thickness in treated monkeys
Type: in vivo, cynomolgus monkeys (Macaca fascicularis)
Conditions: Intact/leuprolide (leuprolide for 40 days)

CCNC(=O)[C@@H]1CCCN1C(=O)[C@H](CCCNC(=N)N)NC(=O)[C@H](CC(C)C)NC(=O)[C@@H](CC(C)C)NC(=O)[C@H](Cc1ccc(O)cc1)NC(=O)[C@H](CO)NC(=O)[C@H](Cc1c[nH]c2ccccc12)NC(=O)[C@H](Cc1c[nH]cn1)NC(=O)[C@@H]1CCC(=O)N1 [leuprolide]
Endometrial Thickness (mm): 1.25 mm
